Patent US8450301B2, “Piperazine compounds with a herbicidal action” (BASF SE, priority 2006, dated 2013)

What was measured:
Type in all cases: in vivo
[1] = system: Echinochloa crus galli (ECHCG); assay: greenhouse experiment, pre-emergence treatment; conditions: application rate 3 kg/ha, scale 0 to 100
From the text: (§1) The culture containers used were plastic flowerpots containing loamy sand with approximately 3.0% of humus as the substrate. The seeds of the test plants were sown separately for each species.
(§2) For the pre-emergence treatment, the active ingredients, which had been suspended or emulsified in water, were applied directly after sowing by means of finely distributing nozzles. The containers were irrigated gently to promote germination and growth and subsequently covered with transparent plastic hoods until the plants had rooted. This cover caused uniform germination of the test plants, unless this has been impaired by the active ingredients.
(§3) Depending on the species, the plants were kept at 10-25° C. or 20-35° C. The test period extended over 2 to 4 weeks. During this time, the plants were tended, and their response to the individual treatments was evaluated.
(§4) Evaluation was carried out using a scale from 0 to 100. 100 means no emergence of the plants, or complete destruction of at least the aerial moieties, and 0 means no damage, or normal course of growth. A good herbicidal activity is given at values of at least 70 and a very good herbicidal activity is given at values of at least 85.

SETIT = assay: greenhouse experiment, pre-emergence treatment; conditions: application rate 3 kg/ha, scale 0 to 100
From the text: as §1, §2, §3, §4

Setaria faberi (SETFA) [2] = assay: greenhouse experiment, post-emergence treatment; conditions: application rate 3 kg/ha, scale 0 to 100
From the text: as §1
(§5) For the post-emergence treatment, the test plants were first grown to a height of 3 to 15 cm, depending on the plant habit, and only then treated with the active ingredients which had been suspended or emulsified in water. For this purpose, the test plants were either sown directly and grown in the same containers, or they were first grown separately as seedlings and transplanted into the test containers a few days prior to treatment.
as §3, §4

[3] = system: Amaranthus retroflexus (AMARE); assay: greenhouse experiment, pre-emergence treatment; conditions: application rate 0.5 kg/ha, scale 0 to 100
From the text: as §1, §2, §3, §4

[4] = system: Apera spica-venti (APESV); assay: greenhouse experiment, pre-emergence treatment; conditions: application rate 0.5 kg/ha, scale 0 to 100
From the text: as §1, §2, §3, §4

[5] = system: Alopecurus myosuroides (ALOMY); assay: greenhouse experiment, post-emergence treatment; conditions: application rate 3 kg/ha, scale 0 to 100
From the text: as §1, §5, §3, §4

Avena fatua (AVEFA) = assay: greenhouse experiment, post-emergence treatment; conditions: application rate 3 kg/ha, scale 0 to 100
From the text: as §1, §5, §3, §4

Setaria faberi (SETFA) [6] = assay: greenhouse experiment, pre-emergence treatment; conditions: application rate 3 kg/ha, scale 0 to 100
From the text: as §1, §2, §3, §4

| Compound | herbicidal pre-emergence activity against ECHCG [1] | herbicidal pre-emergence activity against SETIT (SETIT) | herbicidal post-emergence activity against SETFA (Setaria faberi (SETFA) [2]) | also measured |
| --- | --- | --- | --- | --- |
| CN1C(=O)C(C(OS(C)(=O)=O)c2ccccc2[N+](=O)[O-])N(C)C(=O)C1Cc1ccccc1 (single isomer, unassigned) [A.2.267] | good to very good | good to very good | good to very good | – |
| CN1C(=O)C(C(O[Si](C)(C)C)c2ccccc2[N+](=O)[O-])N(C)C(=O)C1Cc1ccccc1 (single isomer, unassigned) [A.2.271] | – | good to very good | – | – |
| CC(Oc1ccc(CC2C(=O)N(C)C(Cc3ccccc3)C(=O)N2C)c([N+](=O)[O-])c1)C(=O)O (centres unmarked) [A.1.13] | – | good to very good | – | – |
| COS(=O)(=O)C(c1cccnc1Br)C1C(=O)N(C)C(Cc2ccccc2)C(=O)N1C (centres unmarked) [A.5.16, methyl (5-benzyl-1,4-dimethyl-3,6-dioxopiperazin-2-yl)-(2-bromopyridin-3-yl)methanesulfonate] | – | good to very good | – | – |
| CN1C(=O)C(C(OS(C)(=O)=O)c2ccccc2[N+](=O)[O-])N(C)C(=O)C1Cc1ccccc1 (single isomer, unassigned) [A.2.265] | good to very good | good to very good | good to very good | – |
| CCS(=O)(=O)OC(c1ccccc1[N+](=O)[O-])C1C(=O)N(C)C(Cc2ccccc2)C(=O)N1C (centres unmarked) [A.2.275] | good to very good | – | good to very good | – |
| C=Cc1ccccc1CC1C(=O)N(C)C(Cc2ccccc2)C(=O)N1C (centres unmarked) [A.2.274] | good to very good | – | good to very good | – |
| CN1C(=O)C(Cc2c(Br)cccc2[N+](=O)[O-])N(C)C(=O)C1Cc1ccccc1 (centres unmarked) [A.2.133] | good to very good | – | good to very good | – |
| C#Cc1ccccc1CC1C(=O)N(C)C(Cc2ccccc2)C(=O)N1C (centres unmarked) [A.2.135] | good to very good | good to very good | good to very good | – |
| COS(=O)(=O)C(c1ccccc1[N+](=O)[O-])C1C(=O)N(C)C(Cc2cccs2)C(=O)N1C (centres unmarked) [A.5.17, methyl [1,4-dimethyl-3,6-dioxo-5-(thiophen-2-ylmethyl)piperazin-2-yl]-(2-nitrophenyl) methanesulfonate] | – | – | – | herbicidal pre-emergence activity against AMARE [3]: very good (a very good herbicidal activity is given at values of at least 85); herbicidal pre-emergence activity against APESV [4]: good (A good herbicidal activity is given at values of at least 70) |
| Cc1cc(-c2ccccc2CC2C(=O)N(C)C(Cc3ccccc3)C(=O)N2C)on1 (centres unmarked) [A.2.273] | good to very good | good to very good | good to very good | – |
| CC(C)OC(=O)CN1C(=O)C(Cc2ccccc2[N+](=O)[O-])N(C)C(=O)C1Cc1ccccc1 (single isomer, unassigned) [A.2.65] | – | – | good to very good | – |
| CN1C(=O)C(Cc2ccccc2NS(C)(=O)=O)N(C)C(=O)C1Cc1ccccc1 (centres unmarked) [A.2.105] | good to very good | – | – | herbicidal post-emergence activity against ALOMY [5]: very good (a very good herbicidal activity is given at values of at least 85); herbicidal post-emergence activity against AVEFA (Avena fatua (AVEFA)): very good (a very good herbicidal activity is given at values of at least 85) |
| CC(C)=CCN1C(=O)C(Cc2ccccc2[N+](=O)[O-])N(C)C(=O)C1Cc1ccccc1 (single isomer, unassigned) [A.2.64] | good to very good | – | good to very good | – |
| CN1C(=O)C(Cc2ccccc2C#N)N(C)C(=O)C1Cc1ccccc1 (centres unmarked) [A.2.81] | – | – | – | herbicidal pre-emergence activity against SETFA (Setaria faberi (SETFA) [6]): very good (a very good herbicidal activity is given at values of at least 85) |
| CN1C(=O)C(C(OCc2ccccc2)c2ccccc2[N+](=O)[O-])N(C)C(=O)C1Cc1ccccc1 (centres unmarked) [A.2.255] | – | – | good to very good | – |
| CC(=O)OC(c1ccccc1[N+](=O)[O-])C1C(=O)N(C)C(Cc2ccccc2)C(=O)N1C (centres unmarked) [A.2.251] | – | – | good to very good | – |
